Measurements published in PMC8007111, “Novel Potent Muscarinic Receptor Antagonists: Investigation on the Nature of Lipophilic Substituents in the 5- and/or 6-Positions of the 1,4-Dioxane Nucleus” (Journal of Medicinal Chemistry, 2020).

Experiments:
[1] = target: T1, hM1 mAChR (Homo sapiens, UniProt P11229); test: [3H]NMS inhibition radioligand binding, hM1 in CHO-K1 cell membranes
T1 construct: expressed in transfected cells; host or cells: CHO-K1 (membrane preparation)
T1 sequence (P11229 1-460): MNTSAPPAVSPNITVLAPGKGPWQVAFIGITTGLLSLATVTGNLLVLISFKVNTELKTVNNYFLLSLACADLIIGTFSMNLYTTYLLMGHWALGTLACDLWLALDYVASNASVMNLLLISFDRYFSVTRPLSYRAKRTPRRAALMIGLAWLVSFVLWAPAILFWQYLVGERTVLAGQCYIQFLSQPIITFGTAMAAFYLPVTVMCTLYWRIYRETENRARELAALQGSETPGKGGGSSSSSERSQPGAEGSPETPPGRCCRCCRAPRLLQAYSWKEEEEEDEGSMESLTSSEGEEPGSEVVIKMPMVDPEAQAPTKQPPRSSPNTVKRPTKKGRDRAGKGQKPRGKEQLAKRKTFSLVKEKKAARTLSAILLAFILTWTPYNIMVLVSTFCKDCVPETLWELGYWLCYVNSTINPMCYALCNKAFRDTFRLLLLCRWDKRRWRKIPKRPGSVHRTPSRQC
Method: (§1) CHO-K1 cells stably transfected with the human muscarinic receptor subtypes (hM1–5) were grown in Dulbecco’s modified Eagle’s medium (DMEM) with nutrient mixture F12 (DMEM/F12, 50/50), containing 10% fetal bovine serum, penicillin (100 U/mL), streptomycin (100 U/mL), L-glutamine (4 mM), and geneticin (G-418, 50 μg/mL) at 37 °C in a 5% CO2 humidified incubator. […] Serum (0.7 mL) was added to inactivate the trypsin, and the cells were spun down by centrifuging at 300g for 5 min. The cells were then resuspended in ice-cold 25 mM sodium phosphate buffer containing 5 mM MgCl2, pH 7.4 (binding buffer) and homogenized using a cell disrupter (Ultra-Turrax, setting 3, 30 s). The homogenate was sedimented by centrifugation (17,000g, 15 min). The supernatant was discarded, and the resulting membrane pellets were resuspended with Ultra-Turrax in the same buffer to give a final protein concentration of 1–2 mg/mL. The protein content was determined by the method of Bradford (1976) with bovine serum albumin (Sigma) as a standard and stored at −80 °C.
(§2) Inhibition radioligand binding assays were conducted as previously described[48],[49] with 0.2 nM [^3H]NMS in binding buffer in a final volume of 250 μL. Nonspecific binding was defined in the presence of 10 μM atropine. Briefly, membrane fractions (about 25–70 μg/mL of protein) were incubated with radioligand and unlabeled test compounds for 2 h at r.t. Bound and free radioactivity were separated by filtering the assay mixture through UniFilter GF/B plates using a FilterMate Cell Harvester (PerkinElmer Life and Analytical Science). The filter bound radioactivity was counted by a TopCount NXT Microplate Scintillation Counter (PerkinElmer Life and Analytical Science). Data (cpm) were normalized to percentage-specific binding and analyzed using a four-parameter logistic equation in GraphPad Prism 5.02; IC50 values were determined, and Ki values were calculated.[59]

[2] = target: T2, hM2 mAChR (Homo sapiens, UniProt P08172); test: [3H]NMS inhibition radioligand binding, hM2 in CHO-K1 cell membranes
T2 construct: expressed in transfected cells; host or cells: CHO-K1 (membrane preparation)
T2 sequence (P08172 1-466): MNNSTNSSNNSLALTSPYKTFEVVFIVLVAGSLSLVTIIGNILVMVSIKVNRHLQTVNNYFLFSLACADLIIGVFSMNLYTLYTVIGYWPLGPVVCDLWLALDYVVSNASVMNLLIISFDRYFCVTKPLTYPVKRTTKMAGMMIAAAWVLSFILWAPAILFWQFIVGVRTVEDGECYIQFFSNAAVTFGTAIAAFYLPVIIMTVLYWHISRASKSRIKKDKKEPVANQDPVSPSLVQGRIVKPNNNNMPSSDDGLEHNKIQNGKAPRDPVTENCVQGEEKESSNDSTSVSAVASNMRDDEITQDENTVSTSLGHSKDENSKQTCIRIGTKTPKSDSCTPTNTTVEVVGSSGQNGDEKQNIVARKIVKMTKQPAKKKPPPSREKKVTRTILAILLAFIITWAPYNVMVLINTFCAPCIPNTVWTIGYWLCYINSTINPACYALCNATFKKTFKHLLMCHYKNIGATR
Method: as §1, §2

[3] = target: T3, hM3 mAChR (Homo sapiens, UniProt P20309); test: [3H]NMS inhibition radioligand binding, hM3 in CHO-K1 cell membranes
T3 construct: expressed in transfected cells; host or cells: CHO-K1 (membrane preparation)
Method: as §1, §2

[4] = target: T4, hM4 mAChR (Homo sapiens, UniProt P08173); test: [3H]NMS inhibition radioligand binding, hM4 in CHO-K1 cell membranes
T4 construct: expressed in transfected cells; host or cells: CHO-K1 (membrane preparation)
T4 sequence (P08173 1-479): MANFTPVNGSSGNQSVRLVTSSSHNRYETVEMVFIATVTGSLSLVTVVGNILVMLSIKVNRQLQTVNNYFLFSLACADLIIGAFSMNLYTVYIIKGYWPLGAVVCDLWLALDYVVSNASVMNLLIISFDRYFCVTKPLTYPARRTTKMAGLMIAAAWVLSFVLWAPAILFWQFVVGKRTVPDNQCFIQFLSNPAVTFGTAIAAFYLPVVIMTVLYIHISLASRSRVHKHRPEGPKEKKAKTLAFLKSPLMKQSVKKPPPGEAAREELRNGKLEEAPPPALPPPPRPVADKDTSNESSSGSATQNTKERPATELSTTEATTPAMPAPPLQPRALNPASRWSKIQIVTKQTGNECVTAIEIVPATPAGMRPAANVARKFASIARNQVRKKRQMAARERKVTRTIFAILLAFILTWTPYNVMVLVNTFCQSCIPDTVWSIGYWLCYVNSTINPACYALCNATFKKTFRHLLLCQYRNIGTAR
Method: as §1, §2

[5] = target: T5, hM5 mAChR (Homo sapiens, UniProt P08912); test: [3H]NMS inhibition radioligand binding, hM5 in CHO-K1 cell membranes; conditions: [3H]NMS, CHO-K1 cell membranes, mean ± S.E.M.
T5 construct: expressed in transfected cells; host or cells: CHO-K1 (membrane preparation)
T5 sequence (P08912 1-532): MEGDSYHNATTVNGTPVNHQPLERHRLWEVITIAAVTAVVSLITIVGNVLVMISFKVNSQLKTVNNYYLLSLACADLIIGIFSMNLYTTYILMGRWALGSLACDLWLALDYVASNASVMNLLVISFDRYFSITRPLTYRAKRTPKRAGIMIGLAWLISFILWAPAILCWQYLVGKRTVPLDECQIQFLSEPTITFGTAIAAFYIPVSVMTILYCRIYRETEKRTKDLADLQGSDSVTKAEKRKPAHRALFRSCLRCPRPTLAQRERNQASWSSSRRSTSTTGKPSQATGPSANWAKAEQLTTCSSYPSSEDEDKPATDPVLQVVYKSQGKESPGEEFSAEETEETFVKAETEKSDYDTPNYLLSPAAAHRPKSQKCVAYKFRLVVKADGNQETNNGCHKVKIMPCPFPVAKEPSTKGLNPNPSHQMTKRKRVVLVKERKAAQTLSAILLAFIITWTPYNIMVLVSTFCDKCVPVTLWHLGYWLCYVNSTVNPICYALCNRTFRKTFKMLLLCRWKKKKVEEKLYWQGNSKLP
Method: as §1, §2

[6] = [3H]NMS, CHO-K1 cell membranes, mean ± S.E.M.

T3 sequence (P20309 whole entry): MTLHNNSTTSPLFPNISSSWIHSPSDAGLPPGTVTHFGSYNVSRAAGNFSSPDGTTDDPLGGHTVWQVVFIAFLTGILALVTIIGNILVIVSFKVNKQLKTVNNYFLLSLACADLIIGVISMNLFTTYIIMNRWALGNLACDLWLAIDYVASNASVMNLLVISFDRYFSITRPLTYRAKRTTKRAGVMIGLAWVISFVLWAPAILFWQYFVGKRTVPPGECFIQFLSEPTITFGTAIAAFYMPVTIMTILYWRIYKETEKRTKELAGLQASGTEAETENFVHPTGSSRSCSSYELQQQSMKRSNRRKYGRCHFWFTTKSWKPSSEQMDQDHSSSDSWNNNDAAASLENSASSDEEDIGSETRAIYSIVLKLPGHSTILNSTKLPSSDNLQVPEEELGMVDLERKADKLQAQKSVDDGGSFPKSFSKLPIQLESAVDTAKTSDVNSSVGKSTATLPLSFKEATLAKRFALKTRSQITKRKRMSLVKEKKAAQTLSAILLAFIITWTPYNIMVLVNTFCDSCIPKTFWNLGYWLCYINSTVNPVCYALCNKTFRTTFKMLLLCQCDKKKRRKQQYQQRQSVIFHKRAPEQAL

Compound | pKi hM1 [1, 6] | pKi hM2 [2, 6] | pKi hM3 [3, 6] | pKi hM4 [4, 6] | pKi hM5 [5] | M3/M2 selectivity ratio ([3]; from binding affinities at hM3 and hM2) | Ki ([1]; [3H]NMS, CHO-K1 cell membranes, mean ± S.E.M., read-out: pKi hM1 (converted)) [nM] | Ki ([2]; [3H]NMS, CHO-K1 cell membranes, mean ± S.E.M., read-out: pKi hM2 (converted)) [µM] | Ki ([3]; [3H]NMS, CHO-K1 cell membranes, mean ± S.E.M., read-out: pKi hM3 (converted)) [nM] | Ki ([4]; [3H]NMS, CHO-K1 cell membranes, mean ± S.E.M., read-out: pKi hM4 (converted)) [µM] | Ki ([5]; read-out: pKi hM5 (converted)) [µM] | ER (eudismic ratio) hM1 ([1]; eutomer vs distomer) | ER (eudismic ratio) hM2 ([2]; eutomer vs distomer) | ER (eudismic ratio) hM3 ([3]; eutomer vs distomer) | ER (eudismic ratio) hM4 ([4]; eutomer vs distomer)
C[N+](C)(C)C[C@@H]1COC[C@@H](c2ccc(Sc3ccccc3)cc2)O1.[I-] (relative stereo) [6b, 1-((2R*,6R*)-6-(4-(Phenylthio)phenyl)-1,4-dioxan-2-yl)-N,N,N-trimethylmethanaminium Iodide] | 5.51 ± 0.01 | 6.71 ± 0.01 | 5.77 ± 0.05 | 5.70 ± 0.02 | 5.95 ± 0.13 |  |  |  |  |  |  |  |  |  | 
CN(C)C[C@@H]1COC[C@](c2ccccc2)(C2CCCCC2)O1 (relative stereo) [33b, 1-((2R*,6R*)-6-Cyclohexyl-6-phenyl-1,4-dioxan-2-yl)-N,N-dimethylmethanamine] | 8.86 ± 0.16 | 7.88 ± 0.08 | 8.72 ± 0.10 | 8.62 ± 0.12 | 8.62 ± 0.17 | 7.0 |  |  |  |  |  |  |  |  | 
C[N+](C)(C)C[C@@H]1COC[C@H](c2ccc([S+]([O-])c3ccccc3)cc2)O1.[I-] (relative stereo) [7a, 1-((2R*,6S*)-6-(4-(Phenylsulfinyl)phenyl)-1,4-dioxan-2-yl)-N,N,N-trimethylmethanaminium Iodide] | <5 | 5.52 ± 0.02 | <5 | <5 | 5.21 ± 0.08 |  |  |  |  |  |  |  |  |  | 
C[N+](C)(C)C[C@@H]1COC(c2ccccc2)C(c2ccccc2)(c2ccccc2)O1 (stereo in doubt) [19a, 1-((2R*,5S*)-5,6,6-Triphenyl-1,4-dioxan-2-yl)-N,N,N-trimethylmethanaminium Iodide] |  |  |  |  |  |  | 676 | 4.37 | 2000 | 3.89 | 3.98 |  |  |  | 
C[N+](C)(C)C[C@@H]1CO[C@@H](C(c2ccccc2)c2ccccc2)CO1.[I-] (relative stereo) [12b, 1-((2R*,5S*)-5-Benzhydryl-1,4-dioxan-2-yl)-N,N,N-trimethylmethanaminium Iodide] | 6.08 ± 0.07 | 6.06 ± 0.08 | 5.62 ± 0.11 | 5.52 ± 0.06 | 5.20 ± 0.01 |  |  |  |  |  |  |  |  |  | 
C[N+](C)(C)C[C@@H]1COC[C@H](c2ccc(-c3ccccc3)cc2)O1.[I-] (relative stereo) [4a, 1-((2R*,6S*)-6-([1,1′-Biphenyl]-4-yl)-1,4-dioxan-2-yl)-N,N,N-trimethylmethanaminium Iodide] | <5 | 5.06 ± 0.02 | <5 | <5 | <5 |  |  |  |  |  |  |  |  |  | 
C[N+](C)(C)C[C@@H]1CO[C@@H](c2ccccc2)[C@H](c2ccccc2)O1.[I-] (relative stereo) [18a, 1-((2R*,5S*,6S*)-5,6-Diphenyl-1,4-dioxan-2-yl)-N,N,N-trimethylmethanaminium Iodide] | 5.85 ± 0.09 | 5.72 ± 0.09 | 5.33 ± 0.12 | 5.25 ± 0.08 | 5.34 ± 0.07 |  |  |  |  |  |  |  |  |  | 
C[N+](C)(C)C[C@@H]1COC[C@@H](c2ccc(S(=O)(=O)c3ccccc3)cc2)O1.[I-] (relative stereo) [8b, 1-((2R*,6R*)-6-(4-(Phenylsulfonyl)phenyl)-1,4-dioxan-2-yl)-N,N,N-trimethylmethanaminium Iodide] | 5.29 ± 0.07 | 6.70 ± 0.01 | 5.63 ± 0.14 | 5.20 ± 0.07 | 5.80 ± 0.06 |  |  |  |  |  |  |  |  |  | 
CN(C)C[C@@H]1COC[C@](c2ccccc2)(C2CCCCC2)O1 [(2R,6R)-(+)-33b] | 7.68 ± 0.16 | 7.17 ± 0.11 | 6.73 ± 0.06 | 7.01 ± 0.08 | 7.16 ± 0.27 |  |  |  |  |  |  |  |  |  | 
C[N+](C)(C)C[C@H]1COC[C@@](c2ccccc2)(C2CCCCC2)O1.[I-] [(2S,6S)-(−)-3b, 1-((2S,6S)-6-Cyclohexyl-6-phenyl-1,4-dioxan-2-yl)-N,N,N-trimethylmethanaminium Iodide] | 9.52 ± 0.19 | 8.22 ± 0.10 | 9.05 ± 0.10 | 9.17 ± 0.19 | 9.18 ± 0.18 |  |  |  |  |  |  | 17 | 2 | 35 | 52
C[N+](C)(C)C[C@@H]1CO[C@H](c2ccc(S(=O)(=O)c3ccccc3)cc2)CO1.[I-] (relative stereo) [17a, 1-((2R*,5R*)-5-(4-(Phenylsulfonyl)phenyl)-1,4-dioxan-2-yl)-N,N,N-trimethylmethanaminium Iodide] | <5 | 6.39 ± 0.04 | 5.14 ± 0.10 | <5 | 5.05 ± 0.08 |  |  |  |  |  |  |  |  |  | 
